In patent US9133207B2, “Tetrandrine derivatives with substituted 5-carbon, preparation method and use thereof” (Hangzhou Bensheng Pharmaceutical Co., Ltd., priority 2011, dated 2015):
In brackets after ≈: the same amount, converted by molar mass.

Columns and labels:
MG63 (osteosarcoma) = test: Solid tumor cell growth inhibition, MTT, 72 h (Example 7); format: cell-based, human; settings: for IC50 / IC90: Homo sapiens, 72 h, MTT, MG-63
How it was run: (§1)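 Viability (%) relative to compound-free controls (100%) comes from MTT measurement following 72 h drug exposure at 37 °C, 5% CO2. Seeding density: 4000 cells/well, 24 h before dosing.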

PC-3 (prostate cancer) = test: as above; format: cell-based, human; settings: Homo sapiens; 72 h, MTT, PC-3
How it was run: as §1

[1] = test system: CaES-17 (esophageal cancer cell); test: as above; format: cell-based, human; settings: for IC50 / IC90: Homo sapiens, CaEs17, 72 h, MTT, CAES-17
How it was run: as §1

[2] = test system: Hep-2 (laryngeal carcinoma); test: as above; format: cell-based, human; settings: for IC50 / IC90: Homo sapiens, 72 h, MTT, Hep 2
How it was run: as §1

[3] = test system: PANC-1 (pancreatic cancer); test: as above; format: cell-based, human; settings: Homo sapiens; 72 h, MTT, PANC-1
How it was run: as §1

[4] = test system: U87 MG (malignant glioma cell); test: as above; format: cell-based; settings: Homo sapiens, U-87 MG
How it was run: as §1

[5] = test system: MGC 803 (human gastric cancer cell); test: as above; format: cell-based; settings: Homo sapiens
How it was run: as §1

[6] = test system: Huh7 (human liver cancer cell); test: as above; format: cell-based; settings: Homo sapiens; 72 h, MTT, Huh-7
How it was run: as §1

[7] = test system: SK-OV-3 (ovarian cancer cell); test: as above; format: cell-based; settings: Homo sapiens
How it was run: as §1

[8] = test system: RKO (human colon adenocarcinoma cell); test: as above; format: cell-based; settings: for IC50 / IC90: Homo sapiens, 72 h, MTT, RKO; for anti-RKO activity increase over tetrandrine: compared with tetrandrine
How it was run: as §1

[9] = test system: CNE (nasopharyngeal carcinoma cell); test: as above; format: cell-based; settings: Homo sapiens
How it was run: as §1

A549 (human lung cancer) = test: as above; format: cell-based; settings: Homo sapiens; 72 h, MTT, A549
How it was run: as §1

[10] = test system: Hela (human cervical cancer cell); test: as above; format: cell-based; settings: for IC50 / IC90: Homo sapiens, 72 h, MTT, Hela
How it was run: as §1

[11] = test system: Becap37 (human breast cancer cell); test: as above; format: cell-based; settings: for IC50 / IC90: Homo sapiens, 72 h, MTT, Becap-37
How it was run: as §1

[12] = test system: Kasumi-1 (acute myeloid leukemia M2 type, AML-M2); test: Leukemia cell growth inhibition, MTT, 72 h (Example 5); format: cell-based, human; settings: Homo sapiens, Kasumi 1
How it was run: (§2)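 An MTT read-out of viable cell concentration follows 72 h incubation (37° C, 5% CO2) of 6000 cells/well in 10% FBS-supplemented 1640 medium with the 5-substituted derivatives at varying concentrations.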

[13] = test system: Jurkat (acute lymphoblastic leukemia, ALL); test: as above; format: cell-based, human; settings: for IC50 / IC90: Homo sapiens, Jurkat, 72 h, MTT
How it was run: as §2

[14] = test system: K562/adr (drug-resistant, chronic myeloid leukemia, CML); test: as above; format: cell-based, human; settings: Homo sapiens, K562/Adr; 72 h, MTT
How it was run: as §2

[15] = test system: H9 (acute lymphoblastic leukemia, ALL); test: as above; format: cell-based, human; settings: for IC50 / IC90: Homo sapiens, 72 h, MTT; for anti-H9 activity increase over tetrandrine: compared with tetrandrine
How it was run: as §2

[16] = test system: NB4 (acute promyelocytic leukemia, AML); test: as above; format: cell-based, human; settings: for IC50 / IC90: Homo sapiens, 72 h, MTT
How it was run: as §2

[17] = test system: RPMI8226 (multiple myeloma); test: Multiple myeloma cell growth inhibition, MTT, 72 h (Example 6); format: cell-based, human; settings: Homo sapiens, RPMI-8226; 72 h, MTT, RPMI8226
How it was run: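 Viability was read by MTT after 72 h of compound exposure at 37 °C, 5% CO2. Each well held 6000 RPMI8226 cells in 1640 medium containing 10% fetal bovine serum, with derivatives added at various concentrations.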

## COc1ccc2cc1Oc1ccc(cc1)C[C@H]1c3cc(c(OC)cc3CCN1C)Oc1c(OC)c(OC)c(COCCOc3ccccc3)c3c1[C@H](C2)N(C)CC3 [BS-TE-402]
MG63 (osteosarcoma)
  IC50: 0.07 µg/mL (≈ 0.0906 µM)
  IC90: 1.11 µg/mL (≈ 1.44 µM)
MG63 (osteosarcoma); compared with tetrandrine
  anti-MG63 activity increase over tetrandrine: 27 fold
PC-3 (prostate cancer)
  IC50: 2.05 µg/mL (≈ 2.65 µM)
  IC90: 4.71 µg/mL (≈ 6.09 µM)
[1]
  IC50: 0.6 µg/mL (≈ 0.776 µM)
  IC90: 4.9 µg/mL (≈ 6.34 µM)
[1]; compared with tetrandrine
  anti-CaES-17 activity increase over tetrandrine: 14 fold
[2]
  IC50: 0.58 µg/mL (≈ 0.75 µM)
  IC90: 3.58 µg/mL (≈ 4.63 µM)
[2]; compared with tetrandrine
  anti-Hep-2 activity increase over tetrandrine: 7 fold
[3]
  IC50: 1.34 µg/mL (≈ 1.73 µM)
  IC90: 4.04 µg/mL (≈ 5.23 µM)
[4]
  IC50: 0.55 µg/mL (≈ 0.712 µM)
  IC90: 1.78 µg/mL (≈ 2.3 µM)
[5]
  IC50: 1.5 µg/mL (≈ 1.94 µM)
  IC90: 3.62 µg/mL (≈ 4.68 µM)
[6]
  IC50: 1.09 µg/mL (≈ 1.41 µM)
  IC90: 4.97 µg/mL (≈ 6.43 µM)
[7]
  IC50: 1.37 µg/mL (≈ 1.77 µM)
  IC90: 3.89 µg/mL (≈ 5.03 µM)
[8]
  IC50: 0.17 µg/mL (≈ 0.22 µM)
  IC90: 0.6 µg/mL (≈ 0.776 µM)
  anti-RKO activity increase over tetrandrine: 16 fold
[9]
  IC50: 1.03 µg/mL (≈ 1.33 µM)
  IC90: 2.49 µg/mL (≈ 3.22 µM)
A549 (human lung cancer)
  IC50: 1.35 µg/mL (≈ 1.75 µM)
  IC90: 4.79 µg/mL (≈ 6.2 µM)
[10]
  IC50: 0.45 µg/mL (≈ 0.582 µM)
  IC90: 2.29 µg/mL (≈ 2.96 µM)
[10]; compared with tetrandrine
  anti-Hela activity increase over tetrandrine: 9 fold
[11]
  IC50: 0.52 µg/mL (≈ 0.673 µM)
  IC90: 2.15 µg/mL (≈ 2.78 µM)
[11]; compared with tetrandrine
  anti-Becap37 activity increase over tetrandrine: 13 fold
[12]
  IC50: 1.29 µg/mL (≈ 1.67 µM)
  IC90: 4.77 µg/mL (≈ 6.17 µM)
[13]
  IC50: 2.34 µg/mL (≈ 3.03 µM)
  IC90: 5.6 µg/mL (≈ 7.25 µM)
[14]
  IC50: 0.83 µg/mL (≈ 1.07 µM)
  IC90: 2.55 µg/mL (≈ 3.3 µM)
[15]
  IC50: 0.25 µg/mL (≈ 0.323 µM)
  IC90: 1.25 µg/mL (≈ 1.62 µM)
  anti-H9 activity increase over tetrandrine: ~12 fold
[16]
  IC50: 0.2 µg/mL (≈ 0.259 µM)
  IC90: 1.41 µg/mL (≈ 1.82 µM)
[16]; compared with tetrandrine
  anti-NB4 activity increase over tetrandrine: ~8 fold
[17]
  IC50: 0.25 µg/mL (≈ 0.323 µM)
  IC90: 1.17 µg/mL (≈ 1.51 µM)

## COc1ccc2cc1Oc1ccc(cc1)C[C@H]1c3cc(c(OC)cc3CCN1C)Oc1c(OC)c(OC)c(CN3CCN(C)CC3)c3c1[C@H](C2)N(C)CC3 [BS-TE-360]
MG63 (osteosarcoma)
  IC50: 0.8 µg/mL (≈ 1.09 µM)
  IC90: 1.9 µg/mL (≈ 2.59 µM)
PC-3 (prostate cancer)
  IC50: 1.85 µg/mL (≈ 2.52 µM)
  IC90: 2.5 µg/mL (≈ 3.4 µM)
[1]
  IC50: 1.75 µg/mL (≈ 2.38 µM)
  IC90: 10.5 µg/mL (≈ 14.2 µM)
[2]
  IC50: 2.4 µg/mL (≈ 3.27 µM)
  IC90: 9.39 µg/mL (≈ 12.8 µM)
[3]
  IC50: 1.88 µg/mL (≈ 2.56 µM)
  IC90: 9.54 µg/mL (≈ 13 µM)
[4]
  IC50: 0.33 µg/mL (≈ 0.449 µM)
  IC90: 1.55 µg/mL (≈ 2.11 µM)
[5]
  IC50: 0.8 µg/mL (≈ 1.09 µM)
  IC90: 5.17 µg/mL (≈ 7.03 µM)
[6]
  IC50: 0.93 µg/mL (≈ 1.27 µM)
  IC90: 2.4 µg/mL (≈ 3.27 µM)
[7]
  IC50: 1.62 µg/mL (≈ 2.2 µM)
  IC90: 3.22 µg/mL (≈ 4.38 µM)
[8]
  IC50: 0.12 µg/mL (≈ 0.163 µM)
  IC90: 1.02 µg/mL (≈ 1.39 µM)
  anti-RKO activity increase over tetrandrine: 22 fold
[9]
  IC50: 0.64 µg/mL (≈ 0.871 µM)
  IC90: 3.55 µg/mL (≈ 4.83 µM)
A549 (human lung cancer)
  IC50: 1.7 µg/mL (≈ 2.31 µM)
  IC90: 9.2 µg/mL (≈ 12.5 µM)
[10]
  IC50: 1.2 µg/mL (≈ 1.63 µM)
  IC90: 6 µg/mL (≈ 8.16 µM)
[11]
  IC50: 1.2 µg/mL (≈ 1.63 µM)
  IC90: 3.7 µg/mL (≈ 5.03 µM)
[12]
  IC50: 0.41 µg/mL (≈ 0.558 µM)
  IC90: 2.28 µg/mL (≈ 3.1 µM)
[13]
  IC50: 0.5 µg/mL (≈ 0.68 µM)
  IC90: 4.5 µg/mL (≈ 6.12 µM)
[13]; compared with tetrandrine
  anti-Jurkat activity increase over tetrandrine: ~4 fold
[14]
  IC50: 0.33 µg/mL (≈ 0.449 µM)
  IC90: 2.4 µg/mL (≈ 3.27 µM)
[15]
  IC50: 0.22 µg/mL (≈ 0.299 µM)
  IC90: 1.71 µg/mL (≈ 2.33 µM)
  anti-H9 activity increase over tetrandrine: ~12 fold
[16]
  IC50: 0.5 µg/mL (≈ 0.68 µM)
  IC90: 1.4 µg/mL (≈ 1.9 µM)
[17]
  IC50: 0.05 µg/mL (≈ 0.068 µM)
  IC90: 1.5 µg/mL (≈ 2.04 µM)

## COc1ccc2cc1Oc1ccc(cc1)C[C@H]1c3cc(c(OC)cc3CCN1C)Oc1c(OC)c(OC)c(COCc3cccnc3)c3c1[C@H](C2)N(C)CC3 [BS-TE-411]
MG63 (osteosarcoma)
  IC50: 1.26 µg/mL (≈ 1.69 µM)
  IC90: 3.07 µg/mL (≈ 4.13 µM)
PC-3 (prostate cancer)
  IC50: 2.41 µg/mL (≈ 3.24 µM)
  IC90: 5.56 µg/mL (≈ 7.47 µM)
[1]
  IC50: 2.76 µg/mL (≈ 3.71 µM)
  IC90: 11.8 µg/mL (≈ 15.8 µM)
[2]
  IC50: 2.15 µg/mL (≈ 2.89 µM)
  IC90: 5.69 µg/mL (≈ 7.65 µM)
[3]
  IC50: 2.29 µg/mL (≈ 3.08 µM)
  IC90: 8.92 µg/mL (≈ 12 µM)
[4]
  IC50: 1.09 µg/mL (≈ 1.47 µM)
  IC90: 2.55 µg/mL (≈ 3.43 µM)
[5]
  IC50: 2.15 µg/mL (≈ 2.89 µM)
  IC90: 9.02 µg/mL (≈ 12.1 µM)
[6]
  IC50: 1.13 µg/mL (≈ 1.52 µM)
  IC90: 1.66 µg/mL (≈ 2.23 µM)
[7]
  IC50: 8 µg/mL (≈ 10.8 µM)
  IC90: > 16 µg/mL
[8]
  IC50: 0.26 µg/mL (≈ 0.35 µM)
  IC90: 0.6 µg/mL (≈ 0.807 µM)
[9]
  IC50: 1.32 µg/mL (≈ 1.77 µM)
  IC90: 3.33 µg/mL (≈ 4.48 µM)
A549 (human lung cancer)
  IC50: 5.5 µg/mL (≈ 7.39 µM)
  IC90: 15.5 µg/mL (≈ 20.8 µM)
[10]
  IC50: 1.49 µg/mL (≈ 2 µM)
  IC90: 3.45 µg/mL (≈ 4.64 µM)
[11]
  IC50: 1.9 µg/mL (≈ 2.55 µM)
  IC90: 4.9 µg/mL (≈ 6.59 µM)
[12]
  IC50: 0.75 µg/mL (≈ 1.01 µM)
  IC90: 3.58 µg/mL (≈ 4.81 µM)
[13]
  IC50: 1 µg/mL (≈ 1.34 µM)
  IC90: 8.5 µg/mL (≈ 11.4 µM)
[14]
  IC50: 0.79 µg/mL (≈ 1.06 µM)
  IC90: 3.59 µg/mL (≈ 4.83 µM)
[15]
  IC50: 1.23 µg/mL (≈ 1.65 µM)
  IC90: 2.5 µg/mL (≈ 3.36 µM)
[16]
  IC50: 0.7 µg/mL (≈ 0.941 µM)
  IC90: 2.6 µg/mL (≈ 3.5 µM)
[17]
  IC50: 0.26 µg/mL (≈ 0.35 µM)
  IC90: 1.35 µg/mL (≈ 1.81 µM)
